Experimental data published in publication PMC9785441, “A Broad Spectrum Antiparasitic Activity of Organotin (IV) Derivatives and Its Untargeted Proteomic Profiling Using Leishmania donovani” (Pathogens, 2022).
Values belong to the compound of their own block, whether it stands above or below them.

How the values were obtained:
[1] = system: N. fowleri (KUL strain) trophozoites; assay: N. fowleri trophozoite viability assay (CellTiter-Glo); type: cell-based, Naegleria fowleri; settings: Naegleria fowleri, 48 h
Protocol: N. fowleri (KUL strain) was cultured in Nelson’s medium supplemented with 10% FBS and kept at 37 °C. For all experiments, trophozoites were harvested during the logarithmic phase of growth. Test compounds were serially diluted and transferred to a white solid bottomed 96-well tissue culture plate (E&K Scientific, Swedesboro, NJ, USA) followed by addition of 10,000 N. fowleri trophozoites in Nelson’s medium in a final volume of 100 µL and a final concentration of compounds ranging from 50 to 0.39 µM. Amphotericin B was used as positive control and assay plates were incubated for 48 h at 37 °C. Parasite viability was measured as described for E. histolytica and G. lamblia. EC50 values were obtained using the GraphPad Prism 9 Software.

[2] = system: L. donovani promastigotes; assay: L. donovani promastigote viability assay (resazurin); type: cell-based, Leishmania donovani; settings: Leishmania donovani; Figure S1 dose response curves, RFU; read-out: IC50 against the promastigotes of L. donovani
Protocol: Promastigotes of L. donovani from late log phase culture were diluted to 2.0 × 10^6/mL in M-199 containing 10% FBS, 25 mM HEPES (Gibco 15630-080), 100 µM adenine, 12 mM NaHCO3, 10 µM folic acid, 1% penicillin/streptomycin (Gibco 15140-122) as described previously. Compounds and controls were transferred from compound plates to 384 well assay plates with the use of an acoustic transfer system (ATS, EDC Biosystems, Fremont, CA, USA). Promastigotes were incubated with compounds at 29 °C for 48 h. To measure parasite viability, resazurin sodium salt (7-hydroxy-3H-phenoxazin3-one 10-oxide) was dissolved in PBS and added to each well at a volume of 5 µL (final concentration of 44 µM). After incubating for 4 h at room temperature, fluorescence (ex 571 nm/em 584 nm) was recorded with an Envision (Perkin Elmer, Waltham, MA, USA) microplate fluorescence/luminescence reader. […] For positive and negative control amphotericin B and 0.5% DMSO was used, respectively. Dose response and EC50 analyses were obtained using GraphPad Prism 9 Software (Graph Pad Software Inc., San Diego, CA, USA).

[3] = system: T. cruzi (infecting C2C12); assay: T. cruzi intracellular amastigote assay in C2C12 cells (high content imaging); type: cell-based, Trypanosoma cruzi; settings: Trypanosoma cruzi, C2C12, 72 h, read-out: EC50 T. cruzi (infecting C2C12)
Protocol: Mouse C2C12 myoblasts (ATCC CRL-1772) were cultivated in RPMI 1640 medium supplemented with 5% FBS and kept at 37 °C and 5% CO2. T. cruzi CAI-72 trypomastigotes were obtained from the supernatant of C2C12 cells infected four to seven days previously. For the assay, 500 C2C12 cells were mixed with 7500 T. cruzi parasites and seeded into 384-well plates at a 50 µL final volume. Test compounds and reference drugs (Benznidazole and K11777) were pre-spotted into the 384 well black bottom plates prior to the addition of cells and parasites with final assay concentration of 20 µM to 0.02 µM. The plates were incubated at 37 °C^, 5% CO2 for 72 h. Cultures were then fixed with 4% formaldehyde and 0.5 µg/mL DAPI (diamidino-2-phenylindole) was added for staining nucleic acids. Plates were kept protected from light for 1 h and then imaged in an ImageXpress Micro XLS automated high content imager (Molecular Devices, San Jose, CA, USA). Imaging and data analysis were performed as described for L. donovani amastigotes on biological triplicates.

[4] = system: E. histolytica HM1:IMSS trophozoites; assay: E. histolytica trophozoite viability assay (CellTiter-Glo); type: cell-based, Entamoeba histolytica; settings: Entamoeba histolytica, 48 h
Protocol: Trophozoites of E. histolytica HM1:IMSS were maintained in vitro as described in TYI-S-33 medium supplemented with penicillin (100 U/mL) and streptomycin (100 µg/mL). Test compounds were serially diluted and transferred to a white solid bottomed 96-well tissue culture plate (E&K Scientific, Swedesboro, NJ, USA) followed by addition of 5000 E. histolytica trophozoites per well for a final volume of 100 µL TYI-S-33 medium and a final concentration of compounds ranging from 50 to 0.39 µM. Metronidazole were used as positive control and assay plates were incubated for 48 h at 37 °C. The plates maintained kept anaerobically using the GasPak EZ Anaerobic Gas Generating Pouch System (VWR). Parasite viability was measured in triplicate using the CellTiter-Glo luminescence kit (Promega G9243) in an Envision plate reader (Perkin Elmer, Waltham, MA, USA). EC50 values were obtained using GraphPad Prism 9 Software.

[5] = system: G. lamblia (WB strain) trophozoites; assay: G. lamblia trophozoite viability assay (CellTiter-Glo); type: cell-based, Giardia lamblia; settings: Giardia duodenalis, 48 h
Protocol: Trophozoites of G. lamblia (WB strain) were maintained in vitro as described in TYI-S-33 medium supplemented with penicillin (100 U/mL) and streptomycin (100 µg/mL). Cells were harvested during the logarithmic phase of the growth for antiparasitic assessment. Test compounds were serially diluted and transferred to a white solid bottomed 96-well tissue culture plate (E&K Scientific, Swedesboro, NJ, USA) followed by addition of 5000 G. lamblia trophozoites for a final volume of 100 µL of TYI-S-33 medium and a final concentration of compounds ranging from 50.0 to 0.39 µM. Metronidazole was used as a positive control and assay plates were incubated for 48 h at 37 °C in the GasPak EZ Anaerobic Gas Generating Pouch System (VWR). Parasite viability was measured in triplicate using the CellTiter-Glo luminescence kit in an Envision plate reader. EC50 values were obtained using the GraphPad Prism 9 Software.

[6] = system: T. b. brucei Lister 427 bloodstream forms; assay: T. brucei bloodstream form viability assay (SYBR Green); type: cell-based, Trypanosoma brucei; settings: Trypanosoma brucei; bloodstream forms, 72 h
Protocol: Bloodstream forms of T. b. brucei Lister 427 were cultured in complete HMI-9 medium in T25 suspension culture flasks (Thermo Scientific, Cat. 12-566-84) and maintained at 37 °C and 5% CO2. Trypanosomes were kept in log-phase growth and passaged every 48 h. […] Pentamidine were used as a positive control for T. brucei assay. Compounds were diluted with fresh HMI-9 medium (99 µL/well). Parasites in log-phase were suspended at 2 × 10^5 parasites/mL in HMI-9 medium and then added to each well (100 µL) to give 2 × 10^4 trypanosomes/well. Assay plates were incubated at 37 °C and 5% CO2 for 72 h. Parasite lysate was obtained by addition of 50 µL/well of lysis solution (0.012% saponin, 0.12% Triton X-100, 7.5 mM ETDA, 30 mM Tris, pH 7.5) containing 0.3 µL/mL SYBR Green I (10,000× in DMSO; Invitrogen, Carlsbad, CA, USA). Assay plates were incubated in the dark for 1 h at room temperature. Fluorescence was measured at 485 nm excitation and 535 nm emission wavelengths using an EnVision multilabel plate reader (PerkinElmer, Waltham, MA, USA). In each assay plate, parasite viability was normalized relative to positive (pentamidine) and negative (0.5% DMSO) controls in each assay plate. Assays were performed in biological and technical duplicates, and dose–response and EC50 data were generated with GraphPad Prism 9 using a sigmoidal four parameter logistic curve.

[7] = system: S. mansoni, adult worm; assay: S. mansoni adult worm ex vivo phenotypic screen (severity score); type: cell-based, Schistosoma mansoni; settings: after 24 h; tested at 10, 5, 2.5 and 1.25 µM; EC50
From the text: The Naval Medical Research Institute (NMRI) isolate of S. mansoni was used. The parasite was cycled between Biomphalaria glabrata snails and male Golden Syrian hamsters (infected at 4–6 weeks of age) as intermediate and definitive hosts, respectively. Hamsters were infected and maintained in accordance with protocols approved by the Institutional Animal Care and Use Committee (IACUC) at the University of California San Diego. The acquisition, preparation and in vitro maintenance of S. mansoni have been described. Briefly, adult worms were harvested from hamsters 42 days post-infection in RPMI or DMEM, and washed five times prior to maintenance overnight at 37 °C and 5% CO2 in Basch medium containing 4% heat-inactivated FBS, 100 µg/mL streptomycin and 100 U/mL penicillin.
Ex vivo screens with adults employed 24-well flat-bottomed plates and approximately 5 males and 2–3 females/well. The complex and often dynamic phenotypic responses that the schistosome parasite is capable of were observed using a Zeiss Axiovert A1 inverted microscope at 24 h. Observations were classified using a constrained nomenclature that involves simple “descriptors” to convey changes in shape, motility and appearance, and the inability of the male worm to adhere to the bottom of the well, compared to DMSO controls. Each descriptor was given a value of 1 and these were added up to yield a “severity score” with a maximum of 4. Evidence of degeneracy or death was awarded a value of 4 as was damage to the tegument (parasite’s surface) on the understanding this would compromise survival in vivo. […] Data were averaged across two experiments for each compound concentration tested.

EC50 [1]: 90 nM | IC50 [2]: 740 nM
SMILES: C[C@@H]1[C@H](O)[C@@H](C)/C=C/C=C/C=C/C=C/C=C/C=C/C=C/[C@H](O[C@@H]2O[C@H](C)[C@@H](O)[C@H](N)[C@@H]2O)C[C@@H]2O[C@](O)(C[C@@H](O)C[C@@H](O)[C@H](O)CC[C@@H](O)C[C@@H](O)CC(=O)O[C@H]1C)C[C@H](O)[C@H]2C(=O)O [AmpB, amphotericin B, reference compound]

SMILES: O=C(Cn1ccnc1[N+](=O)[O-])NCc1ccccc1 [Benznidazole, benznidazole, reference compound]
EC50 [3]: 4710 nM

EC50 [4]: 4400 nM | EC50 [5]: 5700 nM
SMILES: Cc1ncc([N+](=O)[O-])n1CCO [Metronidazole, metronidazole, reference compound]

SMILES: N=C(N)c1ccc(OCCCCCOc2ccc(C(=N)N)cc2)cc1 [Pentamidine, pentamidine, reference compound]
EC50 [6]: 10 nM

SMILES: O=C(C1CCCCC1)N1CC(=O)N2CCc3ccccc3C2C1 (stereo not shown) [Praziquantel, praziquantel, reference compound]
S. mansoni, adult worm: least concentration at which a severity score of 4 was recorded [7]: 1.25 µM
